The term kinetic solubility denotes the concentration staying in solution when a stock, usually in DMSO, is diluted into the medium. As usually defined, the EC50 is the midpoint of the concentration-response curve. A lower EC50 goes with higher potency in that assay. As usually defined, the IC50 is the midpoint of a concentration-inhibition curve. Read a high IC50 as weaker potency.

Each structure is given as a SMILES string. ≈ marks a conversion by molar mass, not a printed value. Calls of active or inactive are those of the source. The calls are words filed in the database; no cut-off is given here.

The source of these data is ChEMBL document CHEMBL1938289, “Facile synthesis of tetracyclic azepine and oxazocine derivatives and their potential as MAPKAP-K2 (MK2) inhibitors” (Bioorg Med Chem Lett, 2012).

Data set [1] in a line: Kinetic solubility of the compound at pH 7.4. The following applies: buffer.
In data set [2] the target is T1, MAP kinase-activated protein kinase 2 (Homo sapiens, UniProt P49137). Put plainly: Inhibition of MK2-mediated HSP27 phosphorylation at Ser78 in LPS-stimulated human THP-1 cells pre-incubated for 60 mins before LPS treatment measured after 60 mins. It is filed as cell-based.
Target sequence in this assay (P49137 whole entry): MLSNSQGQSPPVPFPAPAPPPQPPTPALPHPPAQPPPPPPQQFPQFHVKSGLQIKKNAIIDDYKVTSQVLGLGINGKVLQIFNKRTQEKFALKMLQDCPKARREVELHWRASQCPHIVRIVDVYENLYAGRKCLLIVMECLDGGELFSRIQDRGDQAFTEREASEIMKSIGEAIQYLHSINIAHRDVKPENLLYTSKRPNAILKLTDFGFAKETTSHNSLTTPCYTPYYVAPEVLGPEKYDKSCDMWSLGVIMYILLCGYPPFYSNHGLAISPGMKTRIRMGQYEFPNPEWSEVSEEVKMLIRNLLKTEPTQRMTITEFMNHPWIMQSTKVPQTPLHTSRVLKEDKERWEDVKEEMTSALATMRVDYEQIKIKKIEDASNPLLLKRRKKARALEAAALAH
Data set [3] concerns the target T1, MAP kinase-activated protein kinase 2. Put plainly: Inhibition of MK2 using TAMRA-labeled peptide as substrate pre-incubated for 30 mins prior substrate addition measured after 30 mins incubation in dark using fluorescence polarization assay. (In general: Fluorescence polarisation rises when a labelled molecule tumbles more slowly, as on binding a larger partner.)
Target sequence in this assay (P49137 whole entry): as above

The target is the same in data set [4]. Put plainly: Noncompetitive inhibition of MK2 using TAMRA-labeled peptide as substrate.
Target sequence in this assay (P49137 whole entry, looked up): as the sequence (P49137 whole entry) above

In data set [1], `N#Cc1ccc(-c2cc3c(o2)-c2nncn2-c2ccc(N4CCNCC4)cc2C3)cc1` registered a kinetic solubility of 16 µM (≈ 6.54 µg/mL). The compound also yielded a half-maximal effective concentration (EC50) in data set [2] of 260 nM. The compound also came in with a 50% inhibitory concentration (IC50) in data set [3] of 3.8 nM. Further, the inhibition result in data set [4] is “Active”.
In turn, `O=C1Nc2ccc(N3CCNCC3)cc2OCc2cc(-c3ccc(Cl)cc3)oc21` came in with a concentration for half-maximal inhibition (IC50) in data set [3] of 110 nM.
Compound `N#Cc1ccc(-c2cc3c(o2)-c2nccn2-c2ccc(N4CCNCC4)cc2C3)cc1` yielded a solubility (kinetic) in data set [1] below 16 µM. A half-maximal response in data set [2] (EC50) required 260 nM. The compound also came in with a concentration for half-maximal inhibition (IC50) in data set [3] of 2.9 nM.
In the case of `Clc1ccc(-c2cc3c(o2)-c2nncn2-c2ccc(N4CCNCC4)cc2C3)cc1`, the solubility (kinetic) in data set [1] is 10 µM (≈ 4.18 µg/mL). Besides, the response in data set [2] was half-maximal at 2100 nM (EC50). This compound also registered an IC50 in data set [3] of 9.3 nM.
On to `O=C(c1ccc(-c2ccc(Cl)cc2)o1)N(Cc1ccccn1)c1ccc(N2CCNCC2)cc1`, for which the solubility (kinetic) in data set [1] was above 200 µM.
`Fc1ccc(-c2cc3c(o2)-c2nncn2-c2ccc(N4CCNCC4)cc2C3)cc1` displayed a solubility (kinetic) in data set [1] of 33 µM (≈ 13.2 µg/mL). Further, the IC50 in data set [3] is 15 nM.
`Clc1ccc(-c2cc3c(o2)-c2nccn2-c2ccc(N4CCNCC4)cc2C3)cc1`: the solubility (kinetic) in data set [1] worked out at 20 µM (≈ 8.34 µg/mL). This compound also returned an EC50 in data set [2] of 1500 nM. Besides, in data set [3], the 50% inhibitory concentration (IC50) came out at 7 nM.
In data set [1], `Cc1nnc2n1-c1ccc(N3CCNCC3)cc1Cc1cc(-c3ccc(Cl)cc3)oc1-2` displayed a kinetic solubility of 10 µM (≈ 4.32 µg/mL). Besides, half-maximal inhibition in data set [3] (IC50) was put at 880 nM.
In data set [1], `Clc1ccc(-c2cc3c(o2)-c2nccn2-c2ccc(N4CCNCC4)cc2OC3)cc1` had a solubility (kinetic) of 38 µM (≈ 16.5 µg/mL). The compound also came in with an IC50 in data set [3] of 18 nM. Further, the inhibition entry in data set [4] is “Active”.
`Cc1cnc2n1-c1ccc(N3CCNCC3)cc1Cc1cc(-c3ccc(Cl)cc3)oc1-2`: the EC50 in data set [2] was 2500 nM. Moreover, the IC50 in data set [3] was found to be 9.2 nM.
